Values joined by “and” are separate entries in the source; they are usually repeats but may differ in a detail not shown here. Identical values can stand only once.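 Compound exposure: 48 hours, 5 concentrations, 96-well plates. GI50 marks 50% less growth. At the TGI there is no net growth.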
Experiments:
Experiment in all cases: NCI tumour cell line growth inhibition, 48 h
[1] = test system: CCRF-CEM leukemia
[2] = test system: HCT-15 colon
[3] = test system: HOP-62 NSCLC
[4] = test system: MDA-MB-435
[5] = test system: OVCAR-3 ovarian
[6] = test system: RXF 393 renal
[7] = test system: HT29 colon
[8] = test system: CAKI-1 renal
[9] = test system: SNB-19 CNS
[10] = test system: SN12C renal

SMILES	GI50 [1]	TGI [1]	GI50 [2]	TGI [2] [µM]	GI50 [3] [µM]	TGI [3]	GI50 [4]	TGI [4] [µM]	GI50 [5]	TGI [5] [µM]	GI50 [6] [µM]	TGI [6]	GI50 [7] [µM]	TGI [7]	GI50 [8] [µM]	TGI [8] [µM]	GI50 [9] [µM]	TGI [9]	TGI [10]	GI50 [10]
CCOC(=O)CSc1cc(Cl)c(C)cc1S(=O)(=O)/N=C(/N=C/c1ccc([N+](=O)[O-])s1)NNC	30.3 µM	> 100 µM	18.8 µM	47.8	13.3	31.3 µM	16.3 µM	37.6	10.3 µM	24.7	22	> 100 µM	15	28.2 µM	17.6	49.3	22.8	80.1 µM	–	–
COC(=O)C(=O)Cc1nc2ccccc2s1	–	> 100 µM	–	> 100	–	> 100 µM	–	–	–	> 100	–	> 100 µM	–	> 100 µM	–	> 100	–	> 100 µM	> 100 µM	–
CCOC(=O)C(C)(NC(=O)c1ccc(NCc2ccc3nc(NC(=O)c4ccccc4)nc(NC(=O)c4ccccc4)c3c2)cc1)C(=O)OCC	–	–	–	> 100	–	31.2 µM	–	–	–	22.1	–	7.92 µM	–	39.1 µM	–	21.9	–	–	29.8 µM	–
COc1cccc2c1-c1nc(N)c3c(OC)cccc3c1C2=O	–	> 100 µM	–	> 100	–	58.5 µM	–	> 100	–	> 100	–	–	–	> 100 µM	–	> 100	–	–	> 100 µM	–
O=C(O/N=C1\CCCC\C1=C/c1ccccc1)c1ccc([N+](=O)[O-])cc1	–	> 100 µM	–	> 100	–	> 100 µM	–	–	–	> 100	–	> 100 µM	–	> 100 µM	–	> 100	–	–	> 100 µM	–
C[C@H]1CC[P+](Cc2ccccc2)(c2ccccc2)C1 (some centres undefined)	–	> 100 µM	–	> 100	–	> 100 µM	–	–	–	> 100	–	> 100 µM	–	> 100 µM	–	–	–	> 100 µM	> 100 µM	–
COC1=C(N)C(=O)c2nc(-c3nc(C(=O)O)c(C)c(-c4ccc(OC)c(OC)c4O)c3N)ccc2C1=O	0.0206 µM and 0.00386 µM	0.0398 µM and 0.0286 µM	0.00144 µM and 0.00832 µM and < 0.01 µM	–	–	0.0407 µM and < 0.01 µM	0.0266 µM and 0.0104 µM	–	0.0283 µM and 0.0169 µM	0.0395	–	15 nM [middle of 4 runs]	–	0.0337 µM and 0.0342 µM and 0.0663 µM	–	–	–	0.00354 µM and 0.0228 µM and < 0.011 µM	0.00884 µM and 0.0161 µM	0.00175 µM and 0.0149 µM
CC(=O)C1CCN(c2ccccc2)C1 (centres undefined)	–	> 100 µM	–	–	–	> 100 µM	–	–	–	> 100	–	> 100 µM	–	> 100 µM	–	> 100	–	> 100 µM	> 100 µM	–
CC(C)=CCc1cc2c(cc1O)C1=C(C(=O)C3=C(C1=O)S(=O)(=O)CCN3)C(C=C(C)C)O2 (centres undefined)	0.696 µM	8.98 µM	1.77 µM	4.3	2.33	4.63 µM	0.061 µM	0.227	0.403 µM	1.37	0.596	2.26 µM	0.634	2.22 µM	–	–	0.651	2.64 µM	0.651 µM	0.294 µM
NC1NC=NC2C1N=CN2C1OC(CO)C2[O][Sn][O]C21 (centres undefined)	> 100 µM	> 100 µM	0.384 µM	> 100	> 100	> 100 µM	–	–	> 100 µM	> 100	> 100	> 100 µM	> 100	> 100 µM	> 100	> 100	> 100	> 100 µM	> 100 µM	1.98 µM
